Results taken from patent US10383843B2, “Use of total coumarins of cnidium fruit in preparing medicaments for treating psoriasis” (priority 2013, dated 2019).

Assays:
vaginal epithelial cells = test: Effect on mitosis of vaginal epithelial cells in mice; type: in vivo; settings: 15 mg/kg by gavage, once a day for 3 days; mitoses per 100 fundus cells
Method: 60 female NIH mice of 27 g±2 g were selected. After being intraperitoneally injected with diethylstilbesrolum for 3 days continuously, 0.2 mg/day for each animal, all the mice were left in estrum interval. From the 4th day, the mice were randomly divided into four groups, 15 mice each. The mice of the four groups were administrated for three days by gavage with 150 mg/kg of total coumarins, 75 mg/kg of total coumarins, 15 mg/kg of anthralin and 15 ml/kg of physiological saline, respectively, once one day. The last administration was carried out at 8:00 am in order to avoid the interference of various administration rhythms between day and night in the mice to the test result. At 9:00 am, 2 mg/kg of colchicine was injected to the mice to make the mitosis of vaginal epithelial cells stopped at the middle cycle of M phase.
The mice were killed at 2 pm. A sample from the vagina of the animal was taken out and fixed in a 10% formaldehyde solution. A slice of tissue was observed under an optical microscope. The number of mitosis per 300 fundus cells was counted to obtain an average number of mitosis among 100 fundus cells, which was regarded as the index of mitosis of vaginal epithelial cells.

[1] = tested on: passive cutaneous anaphylaxis (PCA) of rats; test: Inhibition of passive cutaneous anaphylaxis (PCA) of rats; type: in vivo; settings: 15 mg/kg by gavage, 3 days
Method: Hair on the back of 40 SD rats, 180 g±10 was shaved off. 0.2 ml of a diluted rat-antiserum (1:10) was hypodermically injected into each rat through two places on the back, 0.1 ml for each place. After being injected, the rats were di vided randomly into four groups, which were administered by gavage with 75 mg/kg of total coumarins, 150 mg/kg of total coumarins, 15 mg/kg of anthralin and 15 ml/kg of distilled water for 3 days, once per day. After the injection with the rat-antiserum 48 hours, 1 ml of 0.5% evans blue, […], was intravenously injected into the rats through the caudal vein. The rats were killed in 20 minutes. A piece of skin with blue speckles was taken out from the back, and immersed in 5 ml solution of acetone/physiological saline (acetone:physiological saline=7-3 v/v) for 24 hs. After centrifugation; the supernatant was taken for measuring the optical density (OD) at 590 nm. Inhibition rate was obtained in accordance with the following equation. […] Inhibition (%)=[OD(control)−OD(drug)]×100%/OD(control)

`O=C1c2c(O)cccc2Cc2cccc(O)c21` [Anthralin, anthralin] was tested, and the “Index of Mitosis %” value (vaginal epithelial cells) was 13.4 ± 2.1 %, the OD ([1]; OD at 590 nm of evans blue skin extract) was 0.043 ± 0.25 and the inhibition at 15 mg/kg ([1]; Rattus norvegicus, po, 72 h) was 51.7%.
